Laboratory results taken from ChEMBL document CHEMBL2413038, “Synthesis and bioevaluation of novel 4-aminoquinoline-tetrazole derivatives as potent antimalarial agents” (Eur J Med Chem, 2013).
Converted amounts (≈) assume the structure as drawn. The source made the active and inactive calls. No cut-off for these calls is given here.

tested on: Plasmodium falciparum; assay: Antimalarial activity against chloroquine-resistant Plasmodium falciparum K1 after 72 hrs by MSF assay; type: functional, organism-based; details: K1, 72 h

Compound	IC50 [nM]
COc1ccc(C(Nc2ccc(Nc3ccnc4cc(Cl)ccc34)cc2)c2nnnn2C2CCCCC2)cc1OC (centres undefined)	144
COc1ccc(C(NCCCNc2ccnc3cc(Cl)ccc23)c2nnnn2C(C)(C)C)cc1OC (centres undefined)	138
CC(C)(C)n1nnnc1C(Nc1ccc(Nc2ccnc3cc(Cl)ccc23)cc1)c1cccc2ccccc12 (centres undefined)	77.8
CC(C)(C)n1nnnc1C(NCCNc1ccnc2cc(Cl)ccc12)c1cccc2ccccc12 (centres undefined)	184
CC(C)(C)n1nnnc1C(Nc1ccc(Nc2ccnc3cc(Cl)ccc23)cc1)c1ccc(Cl)c(Cl)c1 (centres undefined)	142

tested on: Plasmodium yoelii; assay: Antimalarial activity against chloroquine-resistant Plasmodium yoelii N-67 infected in Swiss mouse assessed as mouse survival at 50 mg/kg, ip qd for 4 days measured on day 28 post infection relative to control; type: functional; details: not given

Compound	Activity
CC(C)(C)n1nnnc1C(Nc1ccc(Nc2ccnc3cc(Cl)ccc23)cc1)c1cccc2ccccc12 (centres undefined)	inactive
CC(C)(C)n1nnnc1C(Nc1ccc(Nc2ccnc3cc(Cl)ccc23)cc1)c1ccc(Cl)c(Cl)c1 (centres undefined)	inactive

tested on: Plasmodium yoelii; assay: Antimalarial activity against chloroquine-resistant Plasmodium yoelii N-67 infected in Swiss mouse assessed as mean survival time at 50 mg/kg, ip qd for 4 days; type: functional; details: route intraperitoneal

Compound	MST [days]
CC(C)(C)n1nnnc1C(Nc1ccc(Nc2ccnc3cc(Cl)ccc23)cc1)c1cccc2ccccc12 (centres undefined)	12
CC(C)(C)n1nnnc1C(Nc1ccc(Nc2ccnc3cc(Cl)ccc23)cc1)c1ccc(Cl)c(Cl)c1 (centres undefined)	16.83

tested on: Plasma; assay: Inhibition of beta-hematin formation in Plasmodium yoelii-infected Swiss albino mouse plasma using hemin as substrate after 16 hrs; type: functional, cell-free; details: not given

Compound	IC50 [µg/mL]	inhibition
CCN(CC)CCCC(C)Nc1ccnc2cc(Cl)ccc12 (centres undefined) [CHLOROQUINE]	3.95 (≈ 12.3 µM)	Dose-dependent effect
COc1ccc(C(Nc2ccc(Nc3ccnc4cc(Cl)ccc34)cc2)c2nnnn2C2CCCCC2)cc1OC (centres undefined)	5.19 (≈ 9.1 µM)	Dose-dependent effect
COc1ccc(C(NCCCNc2ccnc3cc(Cl)ccc23)c2nnnn2C(C)(C)C)cc1OC (centres undefined)	5.5 (≈ 10.8 µM)	Dose-dependent effect
CC(C)(C)n1nnnc1C(Nc1ccc(Nc2ccnc3cc(Cl)ccc23)cc1)c1cccc2ccccc12 (centres undefined)	5.12 (≈ 9.59 µM)	Dose-dependent effect
CC(C)(C)n1nnnc1C(NCCNc1ccnc2cc(Cl)ccc12)c1cccc2ccccc12 (centres undefined)	6.33 (≈ 13 µM)	Dose-dependent effect
CC(C)(C)n1nnnc1C(Nc1ccc(Nc2ccnc3cc(Cl)ccc23)cc1)c1ccc(Cl)c(Cl)c1 (centres undefined)	5.4 (≈ 9.77 µM)	Dose-dependent effect

tested on: Rattus norvegicus; assay: Volume of distribution in Sprague-Dawley rat at 5 mg/kg, po; type: ADME, organism-based; parameters: dose 5 mg/kg, route oral; details: in vivo

Compound	Vd [L]
CCN(CC)CCCC(C)Nc1ccnc2cc(Cl)ccc12 (centres undefined) [CHLOROQUINE]	1.49

tested on: not listed separately; assay: Clearance in Sprague-Dawley rat at 5 mg/kg, po; type: ADME, organism-based; parameters: dose 5 mg/kg, route oral; details: in vivo

Compound	CL/F [mL/min]
CCN(CC)CCCC(C)Nc1ccnc2cc(Cl)ccc12 (centres undefined) [CHLOROQUINE]	2.5

tested on: Plasmodium yoelii; assay: Antimalarial activity against chloroquine-resistant Plasmodium yoelii N-67 infected in Swiss mouse assessed as mean survival time at 10 mg/kg, po for 4 days; type: functional; details: not given

Compound	MST [days]
CCN(CC)CCCC(C)Nc1ccnc2cc(Cl)ccc12 (centres undefined) [CHLOROQUINE]	16.5

tested on: Plasmodium falciparum; assay: Antimalarial activity against chloroquine-sensitive Plasmodium falciparum 3D7 after 72 hrs by MSF assay; type: functional, organism-based; details: 3D7, 72 h

Compound	IC50 [nM]
COc1ccc(C(Nc2ccc(Nc3ccnc4cc(Cl)ccc34)cc2)c2nnnn2C2CCCCC2)cc1OC (centres undefined)	853
COc1ccc(C(NCCCNc2ccnc3cc(Cl)ccc23)c2nnnn2C(C)(C)C)cc1OC (centres undefined)	57.9
CC(C)(C)n1nnnc1C(Nc1ccc(Nc2ccnc3cc(Cl)ccc23)cc1)c1cccc2ccccc12 (centres undefined)	28
CC(C)(C)n1nnnc1C(NCCNc1ccnc2cc(Cl)ccc12)c1cccc2ccccc12 (centres undefined)	120
CC(C)(C)n1nnnc1C(Nc1ccc(Nc2ccnc3cc(Cl)ccc23)cc1)c1ccc(Cl)c(Cl)c1 (centres undefined)	11

tested on: Rattus norvegicus; assay: Elimination half life in Sprague-Dawley rat at 5 mg/kg, po; type: ADME, organism-based; parameters: dose 5 mg/kg, route oral; details: in vivo

Compound	beta t1/2 [h]
CCN(CC)CCCC(C)Nc1ccnc2cc(Cl)ccc12 (centres undefined) [CHLOROQUINE]	9.5

tested on: Plasmodium yoelii; assay: Antimalarial activity against chloroquine-resistant Plasmodium yoelii N-67 infected in Swiss mouse assessed as mouse survival at 10 mg/kg, ip qd for 4 days measured on day 28 post infection; type: functional, organism-based; parameters: dose 10 mg/kg; details: not given

Compound	Activity
CCN(CC)CCCC(C)Nc1ccnc2cc(Cl)ccc12 (centres undefined) [CHLOROQUINE]	inactive

tested on: Plasmodium yoelii; assay: Antimalarial activity against chloroquine-resistant Plasmodium yoelii N-67 infected in Swiss mouse assessed as cured animal at 10 mg/kg, po for 4 days measured on day 28 post infection; type: functional, organism-based; parameters: dose 10 mg/kg; details: not given

Compound	Activity
CCN(CC)CCCC(C)Nc1ccnc2cc(Cl)ccc12 (centres undefined) [CHLOROQUINE]	inactive

tested on: Plasmodium yoelii; assay: Antimalarial activity against chloroquine-resistant Plasmodium yoelii N-67 infected in Swiss mouse assessed as cured animal at 50 mg/kg, ip qd for 4 days measured on day 28 post infection relative to control; type: functional; details: not given

Compound	Activity
CC(C)(C)n1nnnc1C(Nc1ccc(Nc2ccnc3cc(Cl)ccc23)cc1)c1cccc2ccccc12 (centres undefined)	inactive
CC(C)(C)n1nnnc1C(Nc1ccc(Nc2ccnc3cc(Cl)ccc23)cc1)c1ccc(Cl)c(Cl)c1 (centres undefined)	inactive

tested on: Rattus norvegicus; assay: AUC (0 to t) in Sprague-Dawley rat at 5 mg/kg, po; type: ADME, organism-based, Plasma; parameters: dose 5 mg/kg, route oral; details: in vivo

Compound	AUCt [ng·h/mL]
CCN(CC)CCCC(C)Nc1ccnc2cc(Cl)ccc12 (centres undefined) [CHLOROQUINE]	30.147

tested on: Plasmodium yoelii; assay: Antimalarial activity against chloroquine-resistant Plasmodium yoelii N-67 infected in Swiss mouse assessed as suppression of parasitaemia level at 50 mg/kg, ip qd for 4 days relative to control; type: functional; details: route intraperitoneal

Compound	Activity [%]
CC(C)(C)n1nnnc1C(Nc1ccc(Nc2ccnc3cc(Cl)ccc23)cc1)c1cccc2ccccc12 (centres undefined)	57.03
CC(C)(C)n1nnnc1C(Nc1ccc(Nc2ccnc3cc(Cl)ccc23)cc1)c1ccc(Cl)c(Cl)c1 (centres undefined)	71.49

tested on: not listed separately; assay: Selectivity index, ratio of CC50 for African green monkey Vero cells to IC50 for Plasmodium falciparum; type: functional; details: not given

Compound	Ratio CC50/IC50
COc1ccc(C(Nc2ccc(Nc3ccnc4cc(Cl)ccc34)cc2)c2nnnn2C2CCCCC2)cc1OC (centres undefined)	49.73
COc1ccc(C(NCCCNc2ccnc3cc(Cl)ccc23)c2nnnn2C(C)(C)C)cc1OC (centres undefined)	1662.92
CC(C)(C)n1nnnc1C(Nc1ccc(Nc2ccnc3cc(Cl)ccc23)cc1)c1cccc2ccccc12 (centres undefined)	3815.38
CC(C)(C)n1nnnc1C(NCCNc1ccnc2cc(Cl)ccc12)c1cccc2ccccc12 (centres undefined)	305.32
CC(C)(C)n1nnnc1C(Nc1ccc(Nc2ccnc3cc(Cl)ccc23)cc1)c1ccc(Cl)c(Cl)c1 (centres undefined)	7076.29

tested on: Plasmodium falciparum; assay: Resistance index, ratio of IC50 for chloroquine-resistant Plasmodium falciparum K1 to IC50 for chloroquine-sensitive Plasmodium falciparum 3D7; type: functional; details: not given

Compound	Ratio IC50
COc1ccc(C(Nc2ccc(Nc3ccnc4cc(Cl)ccc34)cc2)c2nnnn2C2CCCCC2)cc1OC (centres undefined)	0.1
COc1ccc(C(NCCCNc2ccnc3cc(Cl)ccc23)c2nnnn2C(C)(C)C)cc1OC (centres undefined)	2.3
CC(C)(C)n1nnnc1C(Nc1ccc(Nc2ccnc3cc(Cl)ccc23)cc1)c1cccc2ccccc12 (centres undefined)	2.7
CC(C)(C)n1nnnc1C(NCCNc1ccnc2cc(Cl)ccc12)c1cccc2ccccc12 (centres undefined)	1.5
CC(C)(C)n1nnnc1C(Nc1ccc(Nc2ccnc3cc(Cl)ccc23)cc1)c1ccc(Cl)c(Cl)c1 (centres undefined)	12.8

tested on: Plasmodium falciparum; assay: Ratio of chloroquine IC50 to compound IC50 for chloroquine-resistant Plasmodium falciparum K1; type: functional; details: not given

Compound	Ratio IC50
CC(C)(C)n1nnnc1C(Nc1ccc(Nc2ccnc3cc(Cl)ccc23)cc1)c1cccc2ccccc12 (centres undefined)	3.38

tested on: Rattus norvegicus; assay: Tmax in Sprague-Dawley rat at 5 mg/kg, po; type: ADME, organism-based; parameters: dose 5 mg/kg, route oral; details: in vivo

Compound	Tmax [h]
CCN(CC)CCCC(C)Nc1ccnc2cc(Cl)ccc12 (centres undefined) [CHLOROQUINE]	0.91
